Reference: ChEMBL document CHEMBL1932967, “Synthesis and biological evaluation of novel derivatives of gambogic acid as anti-hepatocellular carcinoma agents” (Bioorg Med Chem Lett, 2012)
In brackets after ≈: the same amount, converted by molar mass. Activity calls are given as the source filed them. The rule behind the calls is not given here.

Tests used:
[1] = system: Bel-7402; assay: Cytotoxicity against human Bel7402 cells after 72 hrs by MTT assay; type: functional, cell-based; details: Bel-7402, 72 h
[2] = Aqueous solubility of the compound; type: physicochemical; details: water (aqueous)
[3] = Cytotoxicity against human QGY7701 cells after 72 hrs by MTT assay; type: functional, cell-based; details: QGY7701, 72 h
[4] = system: HepG2; assay: cells; details: Homo sapiens, HepG2, 72 h
Description: Cytotoxicity against human HepG2 cells after 72 hrs by MTT assay

[5] = system: SMMC-7721; assay: Cytotoxicity against human SMMC7721 cells after 72 hrs by MTT assay; type: functional, cell-based; details: SMMC-7721, 72 h
[6] = Cytotoxicity against human Bel7404 cells after 72 hrs by MTT assay; type: functional, cell-based; details: BEL-7404, 72 h
[7] = system: Bel-7402; assay: Ratio of Gambogic acid IC50 to compound IC50 for human Bel7402 cells; type: functional
[8] = system: Bel-7402; assay: Ratio of Taxol IC50 to compound IC50 for human Bel7402 cells; type: functional
[9] = system: Bel-7402; assay: Induction of apoptosis in human Bel7402 cells after 48 hrs using V-FITC and propidium iodide staining by flow cytometry; type: functional, cell-based
[10] = system: Bel-7402; assay: Induction of apoptosis in human Bel7402 cells assessed as viable cells at 0.1 uM after 48 hrs using V-FITC and propidium iodide staining by flow cytometry (reference value: 95.7 %); type: functional; details: Bel-7402, 48 h, read-out: Activity
[11] = system: Bel-7402; assay: Induction of apoptosis in human Bel7402 cells assessed as viable cells at 0.025 uM after 48 hrs using V-FITC and propidium iodide staining by flow cytometry (reference value: 95.7 %); type: functional; details: Bel-7402, 48 h, read-out: Activity
[12] = system: Bel-7402; assay: Induction of apoptosis in human Bel7402 cells assessed as late apoptotic cells at 0.025 uM after 48 hrs using V-FITC and propidium iodide staining by flow cytometry (reference value: 2.2 %); type: functional
[13] = system: Bel-7402; assay: Induction of apoptosis in human Bel7402 cells assessed as pre-necrotic cells at 0.4 uM after 48 hrs using V-FITC and propidium iodide staining by flow cytometry (reference value: 0.7 %); type: functional
[14] = system: Bel-7402; assay: Induction of apoptosis in human Bel7402 cells assessed as late apoptotic cells at 0.4 uM after 48 hrs using V-FITC and propidium iodide staining by flow cytometry (reference value: 2.2 %); type: functional
[15] = system: Bel-7402; assay: Cytotoxicity against human Bel7402 cells at 1.235 uM after 72 hrs by MTT assay; type: functional, cell-based
[16] = system: Bel-7402; assay: Induction of apoptosis in human Bel7402 cells assessed as pre-necrotic cells at 0.025 uM after 48 hrs using V-FITC and propidium iodide staining by flow cytometry (reference value: 0.7 %); type: functional
[17] = system: Bel-7402; assay: Induction of apoptosis in human Bel7402 cells assessed as pre-necrotic cells at 0.1 uM after 48 hrs using V-FITC and propidium iodide staining by flow cytometry (reference value: 0.7 %); type: functional
[18] = system: Bel-7402; assay: Induction of apoptosis in human Bel7402 cells assessed as early apoptotic cells at 0.025 uM after 48 hrs using V-FITC and propidium iodide staining by flow cytometry (reference value: 1.4 %); type: functional
[19] = system: Bel-7402; assay: Induction of apoptosis in human Bel7402 cells assessed as late apoptotic cells at 0.1 uM after 48 hrs using V-FITC and propidium iodide staining by flow cytometry (reference value: 2.2 %); type: functional
[20] = system: Bel-7402; assay: Induction of apoptosis in human Bel7402 cells assessed as viable cells at 0.4 uM after 48 hrs using V-FITC and propidium iodide staining by flow cytometry (reference value: 95.7 %); type: functional; details: Bel-7402, 48 h, read-out: Activity
[21] = system: Bel-7402; assay: Induction of apoptosis in human Bel7402 cells assessed as early apoptotic cells at 0.4 uM after 48 hrs using V-FITC and propidium iodide staining by flow cytometry (reference value: 1.4 %); type: functional
[22] = Cytotoxicity against human HL-7702 cells at 1.235 uM after 72 hrs by MTT assay; type: cell-based; details: l02, 72 h
[23] = system: Bel-7402; assay: Induction of apoptosis in human Bel7402 cells assessed as early apoptotic cells at 0.1 uM after 48 hrs using V-FITC and propidium iodide staining by flow cytometry (reference value: 1.4 %); type: functional

SMILES | solubility [2] [µg/mL] | IC50 [4] [µM] | IC50 [1] [µM] | IC50 [3] [µM] | IC50 [5] [µM] | IC50 [6] [µM] | further results
CC(C)=CCC[C@]1(C)C=Cc2c(O)c3c(c(CC=C(C)C)c2O1)O[C@]12C(=C[C@@H]4C[C@H]1C(C)(C)O[C@@]2(C/C=C(/C)C(=O)OCCCN1CCN(CCO)CC1)C4=O)C3=O | 1230 (≈ 1540 µM) | 3.25 | 3.12 | 0.96 | 6.61 | 8.08 | –
CC(C)=CCC[C@]1(C)C=Cc2c(O)c3c(c(CC=C(C)C)c2O1)O[C@]12C(=C[C@@H]4C[C@H]1C(C)(C)O[C@@]2(C/C=C(/C)C(=O)OCCN1CCN(CCO)CC1)C4=O)C3=O | 1260 (≈ 1610 µM) | 9.9 | 3.36 | 1.86 | 8.57 | 10.2 | –
CC(C)=CCC[C@]1(C)C=Cc2c(O)c3c(c(CC=C(C)C)c2O1)O[C@]12C(=C[C@@H]4C[C@H]1C(C)(C)O[C@@]2(C/C=C(/C)C(=O)O)C4=O)C3=O [GAMBOGIC ACID] | 13 (≈ 20.7 µM) | 1.17 | 0.75 | 0.24 | 1.13 | 4.7 | –
CC(C)=CCC[C@]1(C)C=Cc2c(O)c3c(c(CC=C(C)C)c2O1)O[C@]12C(=C[C@@H]4C[C@H]1C(C)(C)O[C@@]2(C/C=C(/C)C(=O)OCCN1CCCCC1)C4=O)C3=O | 870 (≈ 1180 µM) | 3.18 | 1.72 | 0.7 | 6.52 | 7.23 | –
CC(C)=CCC[C@]1(C)C=Cc2c(O)c3c(c(CC=C(C)C)c2O1)O[C@]12C(=C[C@@H]4C[C@H]1C(C)(C)O[C@@]2(C/C=C(/C)C(=O)OCCCN1CCCCC1)C4=O)C3=O | 840 (≈ 1110 µM) | 0.15 | 0.086 | 0.43 | 1.06 | 1.42 | Ratio IC50 [7]: 8.7; Ratio IC50 [8]: 14.5
CC(C)=CCC[C@]1(C)C=Cc2c(O)c3c(c(CC=C(C)C)c2O1)O[C@]12C(=C[C@@H]4C[C@H]1C(C)(C)O[C@@]2(C/C=C(/C)C(=O)OCCN1CCOCC1)C4=O)C3=O | 1230 (≈ 1660 µM) | 0.94 | 0.59 | 0.41 | 1.59 | 1.99 | –
CC(=O)O[C@H]1C(=O)[C@@]2(C)[C@H]([C@H](OC(=O)c3ccccc3)[C@]3(O)C[C@H](OC(=O)[C@H](O)[C@@H](NC(=O)c4ccccc4)c4ccccc4)C(C)=C1C3(C)C)[C@]1(OC(C)=O)CO[C@@H]1C[C@@H]2O [PACLITAXEL] | – | 0.05 | 1.25 | 0.04 | 0.88 | 0.82 | –
CC(C)=CCC[C@]1(C)C=Cc2c(O)c3c(c(CC=C(C)C)c2O1)O[C@]12C(=C[C@@H]4C[C@H]1C(C)(C)O[C@@]2(C/C=C(/C)C(=O)OCCN1CCNCC1)C4=O)C3=O | 1360 (≈ 1840 µM) | 20.1 | 19.7 | 5.43 | 28.4 | 31.1 | –
CC(C)=CCC[C@]1(C)C=Cc2c(O)c3c(c(CC=C(C)C)c2O1)O[C@]12C(=C[C@@H]4C[C@H]1C(C)(C)O[C@@]2(C/C=C(/C)C(=O)OCCCCN1CCN(CCO)CC1)C4=O)C3=O | 1210 (≈ 1490 µM) | 1.16 | 1.1 | 2.56 | 3.52 | 9.65 | –

Continued, in another order:

solubility [2] [µg/mL] | IC50 [4] [µM] | SMILES | IC50 [1] [µM] | IC50 [3] [µM] | IC50 [5] [µM] | IC50 [6] [µM] | further results
1320 (≈ 1720 µM) | 24.1 | CC(C)=CCC[C@]1(C)C=Cc2c(O)c3c(c(CC=C(C)C)c2O1)O[C@]12C(=C[C@@H]4C[C@H]1C(C)(C)O[C@@]2(C/C=C(/C)C(=O)OCCCCN1CCNCC1)C4=O)C3=O | 16.7 | 4.12 | 23.5 | 28.6 | –
1170 (≈ 1520 µM) | 1.51 | CC(C)=CCC[C@]1(C)C=Cc2c(O)c3c(c(CC=C(C)C)c2O1)O[C@]12C(=C[C@@H]4C[C@H]1C(C)(C)O[C@@]2(C/C=C(/C)C(=O)OCCCCN1CCOCC1)C4=O)C3=O | 2.13 | 0.53 | 1.54 | 2.11 | –
1350 (≈ 1790 µM) | 19.1 | CC(C)=CCC[C@]1(C)C=Cc2c(O)c3c(c(CC=C(C)C)c2O1)O[C@]12C(=C[C@@H]4C[C@H]1C(C)(C)O[C@@]2(C/C=C(/C)C(=O)OCCCN1CCNCC1)C4=O)C3=O | 18.1 | 4.38 | 26.2 | 27.6 | –
780 (≈ 1020 µM) | 5.59 | CC(C)=CCC[C@]1(C)C=Cc2c(O)c3c(c(CC=C(C)C)c2O1)O[C@]12C(=C[C@@H]4C[C@H]1C(C)(C)O[C@@]2(C/C=C(/C)C(=O)OCCCCN1CCCCC1)C4=O)C3=O | 3.14 | 4.36 | 4.53 | 6.46 | –
1210 (≈ 1600 µM) | 0.067 | CC(C)=CCC[C@]1(C)C=Cc2c(O)c3c(c(CC=C(C)C)c2O1)O[C@]12C(=C[C@@H]4C[C@H]1C(C)(C)O[C@@]2(C/C=C(/C)C(=O)OCCCN1CCOCC1)C4=O)C3=O | 0.045 | 0.12 | 0.73 | 1.25 | Activity [9]: Dose-dependent effect; Ratio IC50 [7]: 16.7; viability at 0.1 µM [10]: 72.2%; viability at 0.025 µM [11]: 87.8%; Ratio IC50 [8]: 27.8; Activity [12]: 7.8%; Activity [13]: 0.5%; Activity [14]: 5%; Activity [15]: Active; Activity [16]: 1.4%; Activity [17]: 0.4%; Activity [18]: 3%; Activity [19]: 4.6%; viability at 0.4 µM [20]: 49.6%; Activity [21]: 44.9%; Activity [22]: Toxic; Activity [23]: 22.8%
